Bounds are passed on as bounds.

This assay is described as follows: Pre-emergence (experimental example 1) and post-emergence (experimental example 2) herbicidal tests, reported together. Format: in vivo. The settings on record: 336 h; one or more weed species, in one or both of experimental examples 1 (pre-emergence, 250 g/ha) and 2 (post-emergence, 250 g/ha or less); two weeks after treatment, versus untreated control; read-out: reduction in the growth of one or more weed species. Here is the method: Seed of various broad-leaf and grass weed species were sown and herbicide, dissolved in a mixture of acetone and water, was applied at a rate of 250 g/ha to the soil surface. The said weeds are Amaranthus retroflexus, Abutilon theophrasti, Galium aparine, Ipomoea purpurea, Setaria viridis, Alopecurus myosuroides, Avena fatua and Echinochloa crus-calli. Two weeks after treatment the percentage reduction in plant growth was assessed in comparison with an untreated control. Seed of the various weed species, as listed in experimental example 1, were sown and grown up to a 1-3 leaves stage. A post-emergence application of herbicide, dissolved in a mixture of acetone and water, was applied at a rate of 250 g/ha or less. Two weeks after treatment the percentage reduction in plant growth was assessed, in comparison with an untreated control.
In the case of `COC=C(Oc1cccc(COc2ccc(C)cc2)c1C(=O)O)C(=O)OC` [Compound 20, methyl 2-[2-carboxy-3-(4-methylphenoxymethyl)phenoxy]-3-methoxypropenoate], the pest or weed control at up to 250 g/ha is ≥ 70%.
`COC=C(Oc1cccc(COc2ccc(Cl)cc2)c1C(=O)O)C(=O)OC` [Compound 17, methyl 2-(2-carboxy-3-(4-chlorophenoxymethyl)phenoxy)-3-methoxypropenoate]: the pest or weed control at up to 250 g/ha is ≥ 70%.
The result for `COC=C(Oc1cccc(OC(=COC)C(=O)OC)c1C(=O)O)C(=O)OC` [Compound 1, 2,6-bis(2-methoxy-1-methoxycarbonyl-vinyloxy)benzoic acid] reads ≥ 80%.
The value for `COC=C(Oc1cccc(COc2ccccc2)c1C(=O)O)C(=O)OC` [Compound 16, methyl 2-(2-carboxy-3-phenoxymethylphenoxy)-3-methoxypropenoate] was ≥ 80%; that for `COC=C(Oc1cccc(COC(C)=O)c1C(=O)O)C(=O)OC` [Compound 2, methyl 2-(3-acetoxymethyl-2-carboxyphenoxy)-3-methoxypropenoate] was ≥ 80%.
The value for `C#CCOC(=O)c1c(OC(=COC)C(=O)OC)cccc1OC(=COC)C(=O)OC` [Compound 13, propargyl 2,6-bis(2-methoxy-1-methoxycarbonyl-vinyloxy)benzoate] was ≥ 80%; that for `COC=C(Oc1cccc(COc2ccc(C#N)cc2)c1C(=O)O)C(=O)OC` [Compound 18, methyl 2-[2-carboxy-3-(4-cyanophenoxymethyl)phenoxy]-3-methoxypropenoate] was ≥ 70%; that for `COC=C(Oc1cccc(COc2ccc(OC)cc2)c1C(=O)O)C(=O)OC` [Compound 19, methyl 2-[2-carboxy-3-(4-methoxyphenoxymethyl)phenoxy]-3-methoxypropenoate] was ≥ 80%.

Values taken from patent US20010029239A1, “New herbicidal compositions” (priority 1999, published 2001).
